From patent US20190015379A1, “USE OF DIANHYDROGALACTITOL AND ANALOGS AND DERIVATIVES THEREOF, TOGETHER WITH RADIATION, TO TREAT NON-SMALL-CELL CARCINOMA OF THE LUNG AND GLIOBLASTOMA MULTIFORME AND SUPPRESS PROLIFERATION OF CANCER STEM CELLS” (DelMar Pharmaceuticals, Inc., priority 2014, published 2019)

How the values were obtained:
[1] = tested on: A549 human lung adenocarcinoma xenograft tumors; assay: A549 NSCLC xenograft tumor growth in Rag2 mice; type: in vivo, female Rag2 mice
Experimental: The purpose of the study reported in this Example is to evaluate the activity of dianhydrogalactitol in in vivo models of drug-resistant NSCLC in comparison to other drugs, including cisplatin. Rag2 mice bearing subcutaneous human lung adenocarcinoma xenograft tumors of either TKI-resistant (H1975) or TKI-sensitive (A549) origin were treated.
Two human NSCLC cell lines, A549 (TKI-sensitive) and H1975 (TKI-resistant), were used as xenograft tumor models in female Rag2 mice. The mice were 6 to 8 weeks of age and weighed 18-23 grams. 10 mice were used per group.
Cisplatin was used in normal saline at a dose of 5 mg/kg. Administration was intravenous.
Dianhydrogalactitol was used in 0.9% sodium chloride for injection at 1.5 mg/kg to 6 mg/kg. Administration was intraperitoneal.
Treatment was initiated at a tumor volume of 100 mm^3 to 150 mm^3.
On day 0, tumor cells were implanted subcutaneously into mice in a volume of 50 μL in Matrigel™ using a 28-gauge needle; injection of the tumor cells was in the back of the mice. Mice were randomly assigned to groups based on tumor volume.
Tumor growth was monitored by measuring tumor dimensions with calipers beginning on the first day of treatment. Tumor length and width measurements were obtained each Monday, Wednesday, and Friday. Tumor volumes were calculated according to the equation L×W^2/2 with the length (in mm) being defined as the longer axis of the tumor. Animals were weighed at the time of tumor measurement. Tumors were allowed to grow to a maximum of 800 mm^3 before termination.

[2] = tested on: recurrent glioblastoma multiforme (GBM); assay: Phase I/II dose-escalation study, tumor response in GBM patients; type: in vivo, human
From the text: (§1) The methodology of the study reported in this Example is as follows: An open-label, single arm Phase I/II dose-escalation study designed to evaluate the safety, tolerability, pharmacokinetics and anti-tumor activity of dianhydrogalactitol in patients with: (i) histologically confirmed initial diagnosis of primary WHO Grade IV malignant GBM, now recurrent, or (ii) progressive secondary brain tumor, having failed standard brain radiotherapy, and with brain tumor progression after at least one line of systemic therapy. The study utilizes a 3+3 dose escalation design, until the MTD or the maximum specified dose is reached. Patients receive dianhydrogalactitol intravenously at the assigned dose on days 1, 2, and 3 of each 21-day treatment cycle. In Phase II, additional patients will be treated at the MTD (or other selected optimum Phase II dose) to measure tumor responses. All patients enrolled have previously been treated with surgery and/or radiation, if appropriate, and must have failed both bevacizumab and TMZ, unless contraindicated. For these studies, the following is a summary of the inclusion criteria: (1) Patients must be greater than or equal to 18 years old. (2) There is a histologically confirmed initial diagnosis of primary WHO Grade IV malignant glioma (glioblastoma), now recurrent, or progressive secondary brain tumor, the patient has failed standard brain radiotherapy, and the patient has brain tumor progression after at least one line of systemic therapy. […] (4) The patient must have a predicted life expectancy of at least 12 weeks. The following is a summary of the exclusion criteria: (1) There is a current history of neoplasm other than the entry diagnosis. Patients with previous cancers treated and cured with local therapy alone may be considered. (2) There is evidence of leptomeningeal spread of disease. […] (4) The patient had undergone prior treatment with intracerebral agents. […] (6) The patient is being administered concomitant medications that are strong inhibitors of cytochrome P450 and CYP3A up to 14 days before Cycle 1, Day 1 (pimozide, diltiazem, erythromycin, clarithromycin, and quinidine, and amiodarone up to 90 days before.
(§2) Enrollment and evaluation of Cohort 7 (40 mg/m^2) is ongoing. Higher doses may be enrolled subject to completion of mandated safety observation period with Cohort 6 (30 mg/m^2). Patients enrolled present with refractory progressive GBM and a dire prognosis. […] The primary endpoint of this portion of the study is to determine a modernized dosing regimen for advancement to registration-directed clinical trials. […] In this design, it is not possible to perform a rigorous assessment of patient benefit due to slowed tumor growth. Tumor volume is assessed during the study based on RANO criteria. […] Outcomes analysis of cohort 6 is ongoing. These preliminary data support continued exploration of higher dose cohorts.

[3] = Phase I/II dose-escalation study, safety (DLT, SAE, MTD); type: in vivo, human; details: for drug-related serious adverse events: dose cohorts completed to date
From the text: as §1, with “Patients receive dianhydrogalactitol intravenously at the assigned dose on days 1, 2, and 3 of each 21-day treatment cycle.” left out
as §2

[4] = dianhydrogalactitol 1.5 mg/kg i.p. (group 3)
[5] = dianhydrogalactitol 3 mg/kg i.p. (group 4)
[6] = secondary brain tumor patients, n = 6

dianhydrogalactitol
day on which a mean tumor volume of 200 mm^3 was observed [1, 4]: 45 days
day on which a mean tumor volume of 400 mm^3 was reached [1, 4]: 67 days
tumor doubling time [1, 4]: 22
number of animals remaining on study on day 70 ([1]; dianhydrogalactitol 1.5 mg/kg i.p. M, W, F for 3 weeks (group 3)): 7/10
tumor growth delay compared to untreated controls ([1]; dianhydrogalactitol 3 mg/kg i.p.): 26 days
day on which a mean tumor volume of 200 mm^3 was observed [1, 5]: 42 days
day on which a mean tumor volume of 400 mm^3 was reached [1, 5]: 81 days
tumor doubling time [1, 5]: 39
number of animals remaining on study on day 70 ([1]; dianhydrogalactitol 3 mg/kg i.p. M, W, F for 3 weeks (group 4)): 6/10
day on which a mean tumor volume of 200 mm^3 was observed ([1]; dianhydrogalactitol 6 mg/kg i.p. (group 5)): 54 days
number of animals remaining on study on day 70 ([1]; dianhydrogalactitol 6 mg/kg i.p. (group 5; stopped after 3 doses)): 8/10
tumor response in cohort 6 ([2]; 30 mg/m^2, one of two patients, after 1 cycle of treatment): stable disease
Tumor Response, PR (number of patients) ([2]; GBM, n = 8): PR (1); SD (1)
Tumor Response, SD (number of patients) ([2]; GBM, n = 8): PR (1); SD (1)
Tumor Response, Overall ([2]; GBM, n = 8, prior Surgery/XRT/TMZ/BEV): Overall = 25%
MRI scan findings ([2]; Patient #26, T=64 days versus T=0, after two cycles): Thick confluent regions of abnormal enhancement have diminished
Status (DLT) ([3]; 1.5 mg/m^2, cumulative 9 mg/m^2 in 33-day cycle): Completed - No DLT
Status (DLT) ([3]; 3.0 mg/m^2, cumulative 18 mg/m^2 in 33-day cycle): Completed - No DLT
Status (DLT) ([3]; 5.0 mg/m^2, cumulative 30 mg/m^2 in 33-day cycle): Completed - No DLT
Status (DLT) ([3]; 10.0 mg/m^2, cumulative 60 mg/m^2 in 33-day cycle): Completed - NO DLT
Status (DLT) ([3]; 20.0 mg/m^2 (revised scheme), cumulative 120 mg/m^2 in 33-day cycle): Completed - NO DLT
Status (DLT) ([3]; 30.0 mg/m^2 (revised scheme), cumulative 180 mg/m^2 in 33-day cycle, analysis ongoing): Completed - No DLT
DLT ([3]; GBM patients, n = 8): None
drug-related serious adverse events [3]: No drug-related serious adverse events have been detected
drug-related serious adverse events ([3]; listed as Dianhydrogalactitol): no drug-related serious adverse events have been detected
maximum tolerated dose (MTD), as 33 day cycle cumulative dose ([3]; five dose cohorts completed, not yet reached): > 120 mg/m^2
maximum tolerated dose (MTD) ([3]; i.v. on days 1, 2, and 3 of each 21-day cycle, not reached): > 30 mg/m^2
DLT [3, 6]: None
SAE [3, 6]: None (n = 5)
